The values below come from the Deep4Chem optical property database.

SMILES strings stand for the structures.

The nature of this data set: solvent given as SMILES.

`CC1=[N+]2C(=C(c3ccc(-c4c5ccccc5c(-c5ccccc5)c5ccccc45)cc3)c3ccc(C)n3[B-]2(F)F)C=C1` yielded an absorption maximum (in CC#N) of 508 nm; an absorption maximum (in CCCCCC) of 512 nm; an absorption maximum (in CCO) of 511 nm; an absorption maximum (in CN(C)C=O) of 512 nm; an absorption maximum (in Cc1ccccc1) of 516 nm; an absorption maximum (in ClCCl) of 513 nm.

As to `C#CCn1c2ccccc2c2cc(/C=C/c3c(Cl)c(C)c4n3[B-](F)(F)[N+]3=C(C)C(Cl)=C(C)C3=C4c3ccc(I)cc3)ccc21`, the absorption maximum (in CC#N) was determined as 606 nm, the absorption maximum (in CS(C)=O) was determined as 616 nm and the absorption maximum (in ClC(Cl)Cl) is reported as 619 nm.

The compound `C#Cc1cccc2ccccc12` had an absorption maximum (in C1CCCCC1) of 310 nm, an absorption maximum (in CC#N) of 306 nm, an absorption maximum (in CO) of 309 nm and an absorption maximum (in ClCCl) of 312 nm.

Consider `CCOC(=O)CSc1nc(C)c(CC)c(C#N)c1C#N`, for which the absorption maximum (in c1ccccc1) turned out to be 357 nm.

For the setting “in CO”, `COc1ccc(-c2nc(-c3cccc(OC)c3)[nH]c2-c2ccc(OC)cc2)cc1` returned an absorption maximum of 300 nm.

In turn, `c1ccc2c(-n3c4ccccc4c4ccccc43)cccc2c1` had an absorption maximum (in C1CCCCC1) of 321 nm; an absorption maximum (in C1CCOC1) of 323 nm; an absorption maximum (in CC#N) of 322 nm; an absorption maximum (in CCO) of 325 nm; an absorption maximum (in CCOC(C)=O) of 323 nm; an absorption maximum (in CCOCC) of 322 nm. For the same compound, the absorption maximum (in CO) came to 323 nm, the absorption maximum (in Cc1ccccc1) amounted to 321 nm and the absorption maximum (in ClC(Cl)Cl) came to 324 nm.

Regarding `O=C1c2ccccc2-c2c(-c3ccccc3)c(-c3ccccc3)c(-c3ccccc3)c3cccc1c23`, the absorption maximum by setting is: (in CC#N) 401 nm; (in CO) 407 nm.

Regarding `COc1ccc(C(=O)/C=C2\C(=O)Nc3ccccc32)c(OC)c1`, the absorption maximum is, setting by setting: (in C1CCCCC1) 334 nm; (in C1COCCO1) 336 nm; (in CC#N) 328 nm; (in CC(C)(C)O) 338 nm; (in CC(C)O) 338 nm; (in CCCCCC) 333 nm. In addition, the absorption maximum came to 340 nm (in CCCCO); 334 nm (in CCOC(C)=O); 338 nm (in CN(C)C=O); 343 nm (in CO); 331 nm (in ClCCl); 330 nm (in O).

`COc1cc(-c2cc(-c3ccccc3)c(-c3ccccc3)c(-c3ccccc3)c2-c2ccccc2)c(OC)cc1-c1ccc(N(C)C)cc1` registered an absorption maximum (in ClC(Cl)Cl) of 329 nm.

`CN(C)c1ccc(/C=C/c2nc3ccccc3s2)cc1`: the absorption maximum was 384 nm (in C1CCCCC1); 396 nm (in C1CCOC1); 393 nm (in C1COCCO1); 401 nm (in CC#N); 394 nm (in CC(C)O); 384 nm (in CCCCCC). Besides, the absorption maximum runs as follows: (in CCCCCCC) 387 nm; (in CCO) 396 nm; (in CCOC(C)=O) 391 nm; (in CCOCC) 390 nm; (in CN(C)C=O) 402 nm; (in CO) 397 nm. The absorption maximum came out at 405 nm (in CS(C)=O), 402 nm (in O) and 409 nm (in OCC(O)CO).

On to `CC/[NH+]=c1\cc2oc3cc(NCCNC(=O)C(NC(=O)OC(C)(C)C)C(C)C)c4ccccc4c3nc-2cc1C` (stereo not drawn), for which the absorption maximum is, setting by setting: (in CCO) 590 nm; (in O) 590 nm.

Under “in ClC(Cl)Cl”, `C(#Cc1ccncc1)C(C#Cc1ccncc1)=Cc1ccc(C=C(C#Cc2ccncc2)C#Cc2ccncc2)cc1` registered an absorption maximum of 420 nm.

Regarding `CC(C)[Si](C#Cc1c2nsnc2c(C#C[Si](C(C)C)(C(C)C)C(C)C)c2nc3c(nc12)Cc1ccccc1-3)(C(C)C)C(C)C`, the absorption maximum (in CCCCCC) is 540 nm.

For `COc1c2ccccc2c(OC)c2c1c1cccc(OC)c1n2C`, the absorption maximum came to 409 nm (in C1CCCCC1), 409 nm (in CC#N), 407 nm (in CO) and 412 nm (in ClCCl).

Where the note is “in CCO”, `Nc1cc2nc3cc(Br)c(Br)cc3nc2cc1N` had an absorption maximum of 442 nm.

As for `CCCCC(CC)CO[N+](=O)[O-]` (stereo not drawn), the absorption maximum (in CO) stood at 218 nm and the absorption maximum (in O) is given as 198 nm.

Consider `COC(=O)COc1ccc(/C=C/C2=[N+]3C(=C(c4ccc(N(C)C)cc4)c4c(C)cc(C)n4[B-]3(F)F)C(C)=C2)cc1`, for which the absorption maximum (in CO) came to 566 nm.

The compound `Cc1cc(N2c3ccccc3[Si](c3ccccc3)(c3ccccc3)c3ccccc32)c(C)cc1-c1nc(-c2ccccc2)nc(-c2ccccc2)n1` displayed an absorption maximum (in Cc1ccccc1) of 365.47 nm.

For the compound `Cc1cc(-c2ccc(N(c3ccccc3)c3ccccc3)cc2)c2nsnc2c1-c1ccc(C(C)(C)C)cc1`, the absorption maximum (in ClCCl) came out at 418 nm.

On to `COc1cc(OC)c2cc(-c3cccc(-c4cc5c(OC)cc(OC)cc5oc4=O)c3)c(=O)oc2c1`, for which, for the setting “in ClC(Cl)Cl”, the absorption maximum stood at 352 nm.

Take `C[Si](C)(C)c1cc2c(cc3ccc4cccc5ccc2c3c45)[nH]1`: under “in CCOC(C)=O”, the absorption maximum was 392 nm.

Turning to `O=C1/C(=C2\Sc3ccc(S(=O)(=O)Cl)cc3C2=O)Sc2ccc(S(=O)(=O)Cl)cc21`, the absorption maximum (in C1COCCO1) turned out to be 526 nm and the absorption maximum (in CS(C)=O) was found to be 553 nm.

Where the note is “in ClCCl”, `Nc1ccc2c(ccc3[n+]2[B-](F)(F)n2c-3cc3c4ccccc4c4ccccc4c32)c1` yielded an absorption maximum of 482 nm.

Compound `CCCCC(CC)Cn1c2cc(C#N)ccc2c2ccc(C#Cc3ccc4ccc5cccc6ccc3c4c56)cc21` (stereo not drawn) displayed an absorption maximum (in ClCCl) of 410 nm.

Where the note is “in O”, `Cc1cc(N(C)C)ccc1C1=C2C=CC(=[N+](C)C)C=C2[Si](C)(C)c2cc(N(C)C)ccc21` registered an absorption maximum of 646 nm.

In turn, `CCCCCOc1cc2oc(=O)c3c4ccc(C#N)cc4c4ccc5cccc6c(c1)c2c3c4c56` came in with an absorption maximum (in C1CCOC1) of 426 nm.

As for `C[Si](C)(C)C#CC(C#C[Si](C)(C)C)=Cc1ccc(C=C(C#C[Si](C)(C)C)C#C[Si](C)(C)C)cc1`, the absorption maximum (in ClC(Cl)Cl) was 412 nm.

Take `N#CC(C#N)=Cc1ccc2nc(C#Cc3ccc(N(c4ccc(C#Cc5nc6ccc(C=C(C#N)C#N)cc6s5)cc4)c4ccc(C#Cc5nc6ccc(C=C(C#N)C#N)cc6s5)cc4)cc3)sc2c1`: the absorption maximum (in Cc1ccccc1) turned out to be 440 nm.

On to `CCCCN(CCCC)c1ccc(/C=C/c2ccc3nc(-c4ccccc4)c(/C=C/c4ccc(N(C)C)cc4)nc3c2)cc1`, for which the absorption maximum is recorded as 458 nm (in C1COCCO1), 462 nm (in CC#N) and 468 nm (in ClCCl).

Consider `COc1ccc(-c2nc(-c3ccccc3)c(N(c3ccccc3)c3ccccc3)s2)cc1`, for which, where the note is “in ClC(Cl)Cl”, the absorption maximum was 357 nm.

As for `COc1cccc2cc(-c3cc4cccc(OC)c4oc3=O)oc12`, the absorption maximum is on record as 352 nm (in CC#N); 351 nm (in CCOC(C)=O); 359 nm (in CS(C)=O); 358 nm (in Cc1ccccc1); 363 nm (in O).

The compound `COc1ccc(C#Cc2ccc3ccc(=O)oc3c2)cc1` returned an absorption maximum (in CC#N) of 308 nm.

Take `CCCCn1c(-c2ccc(-c3nnc(-c4ccc(-c5nc(-c6ccccc6)c(-c6ccccc6)n5CCCC)cc4)o3)cc2)nc(-c2ccccc2)c1-c1ccccc1`: the absorption maximum (in ClCCl) was determined as 352 nm.

In the case of `CCCCCCC(CCCCCC)N1C(=O)c2cccc3c(-c4ccc(OC)c5cccc(C)c45)ccc(c23)C1=O`, the absorption maximum turned out to be 326.6 nm (in CCCCCC); 327 nm (in CCCCCCCCCCCCCC); 329 nm (in CCCCCCCCCCCO); 327.8 nm (in CCCCO); 328.8 nm (in CN(C)C=O); 328.8 nm (in Cc1ccccc1). Moreover, the absorption maximum (in ClC(Cl)Cl) was found to be 329 nm.

For `COC(=O)/C(C#N)=c1\s/c(=c2/s/c(=C(/C#N)C(=O)OC)c3cc(-c4ccc5c(c4)C(C)(C)c4ccccc4-5)sc23)c2sc(-c3ccc4c(c3)C(C)(C)c3ccccc3-4)cc12`, the absorption maximum (in Cc1ccccc1) amounted to 630 nm.

On to `CC(C)(C)Nc1oc(C=Cc2ccccc2)c(C(=O)OC(C)(C)C)c1C(=O)OC(C)(C)C`, for which the absorption maximum (in CC#N) is reported as 384 nm.

`COc1ccc2c(c1)c1c(OC)c3ccccc3c(OC)c1n2C`: the absorption maximum is on record as 421 nm (in C1CCCCC1), 422 nm (in CC#N), 421 nm (in CO) and 425 nm (in ClCCl).

Take `O=[N+]([O-])c1ccc(-c2nc3c(c4c2-c2ccccc2CC4)-c2ccccc2CC3)cc1`: the absorption maximum reads like this: (in C1CCOC1) 350 nm; (in CC#N) 345 nm; (in CCCCCC) 339 nm; (in CCOC(C)=O) 339 nm; (in CO) 334 nm; (in CS(C)=O) 352 nm. In addition, the absorption maximum worked out at 351 nm (in Cc1ccccc1) and 353 nm (in ClCCl).

In turn, `COCCOc1ccc(OCCOC)c(C=O)c1` gave an absorption maximum (in CC(C)(C)O) of 350 nm; an absorption maximum (in CC(C)CO) of 350 nm; an absorption maximum (in CC(C)O) of 349 nm; an absorption maximum (in CCCCO) of 349 nm; an absorption maximum (in CCCO) of 349 nm; an absorption maximum (in CCO) of 349 nm. The absorption maximum is 350 nm (in CN(C)C=O); 350 nm (in CNC=O); 348 nm (in CO); 353 nm (in NC=O); 349 nm (in O).

Turning to `COc1ccc(/C=C/c2cc(/C=C/c3ccc(OC)cc3)nc(/C=C/c3ccc(OC)cc3)n2)cc1`, where the note is “in ClCCl”, the absorption maximum came out at 339 nm.

Compound `CCOC(=O)/N=c1/oc2ccc(OC)cc2cc1C#N` showed an absorption maximum (in ClCCl) of 388 nm.
